In data set [1] the test system is previously treated non-squamous NSCLC. The protocol: The primary objective of this study was to compare the ORR (CR+PR) among the treatment arms. Secondary objectives included comparing PFS, DR, OS, safety and PK.
Additional blood draws were performed for these patients during Cycles 1 and 2 at specified time points.
Samples from the NSCLC Phase II trial of Example IX (PPHM 0902) were tested using the functional β2GPI assay of Example XII.

Data set [2] concerns previously-treated Stage IIIb/IV non-squamous NSCLC. As to the kind of experiment: Phase III trial of bavituximab plus docetaxel in NSCLC.
From the text: (§1) This global, double-blind Phase III trial was initiated in 2012. Selection criteria were for patients with Stage IIIb/IV non-squamous NSCLC who progressed on platinum-doublet chemotherapy (should have progressed on appropriate targeted therapy if known EGFR or ALK mutation), with ECOG PS 0-1 and prior immunotherapy allowed (ECOG is the performance status scale defined by the Eastern Cooperative Oncology Group). […] The primary endpoint was overall survival (OS) and secondary endpoints included objective response rate (Independent Central Review, ICR), progression-free survival (ICR), safety, PK, Quality of Life (LCSS) and exploratory biomarkers, including immune correlates.
(§2) OS was analyzed by VeriStrat subgroups using Kaplan-Meier statistical methods.
(§3) A single cutoff method was first used to assess the patient β2GPI data.
(§4) The initial analyses described above prompted further, extensive analyses of the data in 592 evaluable patients. These analyses used a two cutoff method (Klein & Moeschberger, 2003).
(§5) Archival tissue obtained at the time of diagnosis was requested, but not required, in the Phase III trial of Example X. Formalin-fixed paraffin-embedded (FFPE) slides were stained with antibodies for a panel of lymphoid (or tumor) cell markers, as described in Feng et al., 2015: CD3+, CD8+, FoxP3+, PD-L1+, CD163+ and CK+ (cytokeratin, an epithelial carcinoma marker) using a mutliplex (6-plex) quantitative immunohistochemistry (IHC) assay (OPAL®, PerkinElmer, Waltham, Mass., USA) and using DAPI. The PD-L1 antibody used was the rabbit anti-PD-L1 antibody termed E1L3N® XP® (Cell Signaling Technology, (CST), Danvers, Mass., Catalogue #13684; Mahoney et al., 2015). Baseline PD-L1 expression was retrospectively scored on tumor cells (TC, i.e., CK+) and PD-L1 expressing tumor cells were classified according to their percentage within the total number of tumor cells using established assays and classifications (Fehrenbacher et al., 2016), as follows: TC3≥50%; TC2≥5% and ≤50%; TC1≥1% and <5%; and TC0<1%. Cox regression models for PD-L1 IHC subgroup populations were used for correlation with OS.
(§6) Kaplan-Meier statistical methods and Cox proportional hazard models were utilized to evaluate and contrast the correlation of peripheral (and intratumoral) IFNγ levels with OS based on a data cut from the Phase III trial (Example X) dated Feb.
Data set [3] has the same test system. Particulars: in vivo.
From the text: as §1, §2, §3, §4, §5, §6
Data set [4] relates to previously untreated locally advanced or metastatic non-squamous NSCLC. As to the kind of experiment: Phase II (PPHM 1001) paclitaxel/carboplatin with or without bavituximab. Particulars: functional β2GPI ≥200 μg/mL; bavituximab given with paclitaxel/carboplatin. The class given is in vivo, human.
For data set [5] the following is noted: irrespective of the presence of serum; cited from earlier work.
In data set [6] the test system is PS. The following applies: in the presence of serum; cited from earlier work.
Data set [7] concerns PS. As to the kind of experiment: ELISA binding to PS-coated plates. The following applies: phospholipid-coated ELISA plates. On the procedure:
The 3G4 antibody was produced by immunizing mice with autologous, PS-positive endothelial cells, as reported in Ran et al., 2005. The 3G4 antibody was tested for binding to PS in a standard ELISA in the presence and absence of serum, and was initially characterized as being “serum-independent”, i.e., an antibody that binds to PS in the absence of serum.
In a follow-on study, the binding of the 2aG4 antibody to PS was tested in an ELISA in the presence of varying concentrations of human β2GPI.
These included binding to PS in ELISAs, FACS analyses using PS-positive cells and functional assays in the form of an NFAT surrogate ADCC bioassay (Larson et al., 2013).

The test system of another data set is tumors. Particulars: syngeneic and xenogeneic tumor models; cited from earlier work.
Data set [8] is described as follows: ELISA binding to neutral phospholipids. Particulars: standard ELISA.
For data set [9], the system named is ABAE cells with exposed PS. The data set is described as follows: Binding of antibody-β2GPI complexes to PS on cells. The class given is cell-based. Particulars: first study. On the procedure:
In analyzing the β2GPI levels required for binding of 3G4-β2GPI complexes to PS on cells, the maximum relative binding in a first study occurred at an antibody concentration of 80 nM, which is a β2GPI to antibody ratio of only 0.5.

For the next data set, the target named is T1, β2GPI (Homo sapiens, UniProt P02749).
T1 sequence (P02749 20-345): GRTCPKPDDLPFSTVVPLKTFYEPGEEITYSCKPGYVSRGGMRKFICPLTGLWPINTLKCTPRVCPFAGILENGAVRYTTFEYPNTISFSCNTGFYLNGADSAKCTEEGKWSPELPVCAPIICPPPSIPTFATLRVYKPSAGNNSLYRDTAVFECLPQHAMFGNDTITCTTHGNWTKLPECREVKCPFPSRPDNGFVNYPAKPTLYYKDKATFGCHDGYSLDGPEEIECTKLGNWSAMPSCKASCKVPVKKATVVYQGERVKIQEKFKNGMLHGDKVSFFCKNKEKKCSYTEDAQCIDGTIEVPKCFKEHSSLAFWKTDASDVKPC
As to the kind of experiment: Antibody binding to β2GPI (domain mapping). From the text: In summary, it was shown that the 3G4 antibody binds to β2GPI at domain II and that the lipid binding region of β2GPI domain V is required for co-binding of 3G4 (and ch3G4) and β2GPI to PS exposed on cells. […] Accordingly, antibody and β2GPI co-bind to PS exposed on the outer surfaces of membranes, such as occurs on activated endothelial cells, tumor vascular endothelial cells and tumor cells, as well as on virally infected cells.

Where [10] appears, read: 70% of targeted OS events reached.
Where [11] appears, read: about 85% of targeted OS events.
Where [12] appears, read: about 85% of targeted OS events, vs docetaxel alone.
The mark [13] stands for this setting: functional β2GPI ≥200 μg/mL, 578 evaluable patients.
Where [14] appears, read: functional β2GPI ≥200 μg/mL, 592 evaluable patients.

Consider “bavituximab plus docetaxel: treatment arm: weekly 3 mg/kg bavituximab in combination with docetaxel”, for which the “HR for OS versus combined arm” value in [1] (3 mg/kg) is recorded as 0.66. The “Overall Survival, Median” value in [1] (ITT, all with docetaxel, Bavituximab arm 3 mg/kg) is recorded as 11.7 Months. For the same molecule, in data set [1] (bavituximab 3 mg/kg, combined control = placebo or 1 mg/kg bavituximab, all with docetaxel), the “Grade 5 (fatal) events” value is recorded as 5.0%. Moreover, the “median OS” value in data set [2] (12 months follow-up, about 85% of targeted OS events) is 10.5 months. Besides, the mOS in data set [2] (setting [10]) was 10.7 months; in data set [2] (IFNγ high, no subsequent IO) it was 9.0 months; in [2] (IFNγ high, received subsequent IO), 13.9 months; in data set [2] (IFNγ low, no subsequent IO), 10.5 months; in data set [2] (IFNγ low, received subsequent IO) it was “not reached”; in data set [2] (VS Good patients (VeriStrat)), 11.2 months. For the same molecule, the mOS was determined as 5.8 months in [2] (VS Poor patients (VeriStrat)); 13.2 months in data set [2] (functional β2GPI 200-240 μg/mL); 11.9 months in [2] (setting [13]); 11.9 months in data set [2] (setting [14]); 6.0 months in data set [2] (higher PD-L1 expression (TC1/2/3, ≥1%)); 11.5 months in data set [2] (negative PD-L1 expression (TC0, <1%)). Moreover, the mOS result in [2] (patients receiving subsequent IO) is recorded as “has yet to be reached”; in data set [2] (patients who did not receive subsequent IO), 9.2 months; in data set [2] (pre-treatment serum IFNγ high (≥ median 0.093 μg/mL)), 9.2 months; in data set [2] (pre-treatment serum IFNγ low (< median 0.093 μg/mL)) it was 11.9 months. Also, the “median PFS” value in data set [2] (setting [10]) turned out to be 4.1 months. Further, the HR in [2] (IFNγ high, no subsequent IO, vs docetaxel alone) came to 1.14; in [2] (IFNγ high, received subsequent IO, vs docetaxel alone), 1.0; in [2] (IFNγ low, no subsequent IO, vs docetaxel alone), 1.17; in data set [2] (IFNγ low, received subsequent IO, vs docetaxel alone), 0.24; in data set [2] (no subsequent IO, vs docetaxel alone), 1.16; in data set [2] (patients receiving subsequent IO, vs docetaxel alone), 0.46. For the same molecule, the ORR in [2] (setting [11]) is given as 15%. The PFS in [2] (setting [11]) was found to be 4.2 months. In addition, in data set [2] (setting [12]), the “HR for OS” value amounted to 1.06. Moreover, the “HR for PFS” value in [2] (setting [12]) was 1.02. The figures for the HR for death in data set [2] (functional β2GPI 200-240 μg/mL), in data set [2] (setting [13]) and in data set [2] (setting [14]) were 0.67, 0.77 and 0.81, respectively. The “improvement in mOS versus control group” value in data set [2] (functional β2GPI 200-240 μg/mL) was 5.5 month. The “HR, PD-L1 TC0 versus TC1/2/3 within arm” value in data set [2] (in vivo) is on record as 0.38. The “Grade 3 or higher adverse events” value in data set [3] worked out at 68%.
“paclitaxel/carboplatin [reference compound]”: the mOS in [4] came to 13.2 months.

B1: 3G4: mouse IgG3 monoclonal PS-targeting antibody, hybridoma ATCC PTA 4545 (antibody, V domains shown)
VH: EVQLQQSGPELEKPGASVKLSCKASGYSFTGYNMNWVKQSHGKSLEWIGHIDPYYGDTSYNQKFRGKATLTVDKSSSTAYMQLKSLTSEDSAVYYCVKGGYYGHWYFDVWGAGTTVTVSSATTTAPSVYPLVP
VL: DIQMTQSPSSLSASLGERVSLTCRASQDIGSSLNWLQQGPDGTIKRLIYATSSLDSGVPKRFSGSRSGSDYSLTISSLESEDFVDYYCLQYVSSPPTFGAGTKLELKRADAAPTVFIFGRIP
For the molecule B1, the “binding to neutral phospholipids PC, SM or PE” value in data set [5] is given as “no detectable binding”. In addition, in the data set with PS [6], the “binding to anionic phospholipids (PS, PI, PA, PG, CL)” value was “bind strongly to anionic phospholipids”. Also, the “binding to phospholipids in standard ELISA” value with PS [7] is “bound to PS, CL, PI (phosphatidylinositol), PA (phosphatidic acid) and PG (phosphatidylglycerol)”. In addition, in the data set on tumors, the anti-tumor effects entry is “caused tumor vascular injury, localized thrombosis, tumor necrosis and retarded tumor growth”; the toxicity result was “no evidence of toxicity”. The “reaction with neutral phospholipids, PC and SM” value in data set [8] was “did not react”. In addition, in data set [9], the “antibody concentration at maximum relative binding to PS on cells” value was 80 nM; the “molar ratio of β2GPI to antibody for optimal antibody binding” value is “between 0.125, 0.5 and 2”. Also, the “β2GPI to antibody ratio at maximum relative binding” value in data set [9] (antibody 80 nM) was found to be 0.5. Moreover, in the data set with β2GPI, the β2GPI domain bound entry was “bind to β2GPI at domain II”.

The values above are taken from patent US11571459B2, “Methods for treating cancer using PS-targeting antibodies with immuno-oncology agents” (ONCXERNA THERAPEUTICS, INC., priority 2017, dated 2023).
